ChEMBL document CHEMBL1201862, “PubChem BioAssay data set” (2004)
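Briefly, cells in 96-well plates were exposed to five compound concentrations for 48 h, and endpoints were estimated by linear interpolation. At the GI50, growth is halved.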 The source made the active and inactive calls. Rule as the data show it: active = GI50 up to about 1.1 µM and inactive = higher.

Experiments:
Test in all cases: growth of human tumour cells (NCI), 48 h
NCI-H226 = test system: NCI-H226
RXF 393 = test system: RXF 393
LOX IMVI = test system: LOX IMVI
SF-268 = test system: SF-268
OVCAR-5 = test system: OVCAR-5
SN12C = test system: SN12C
IGROV-1 = test system: IGROV-1
SK-OV-3 = test system: SK-OV-3
T47D = test system: T47D
NCI-H23 = test system: NCI-H23
786-0 = test system: 786-0
SK-MEL-28 = test system: SK-MEL-28
Malme-3M = test system: Malme-3M
SW-620 = test system: SW-620
MCF7 = test system: MCF7
HCC 2998 = test system: HCC 2998
NCI-H460 = test system: NCI-H460
NCI/ADR-RES = test system: NCI/ADR-RES
HOP-92 = test system: HOP-92
CCRF-CEM = test system: CCRF-CEM

Measured: GI50

O=C1C(c2c(O)[nH]c3ccc(Br)cc23)=Nc2ccc(Br)cc21
inactive: NCI-H226 > 100 µM | RXF 393 16.6 µM | LOX IMVI 62.1 µM | SF-268 33 µM | OVCAR-5 > 100 µM | SN12C 45.2 µM | IGROV-1 1.71 µM | SK-OV-3 28.9 µM | T47D > 100 µM | NCI-H23 27.5 µM | 786-0 24 µM | SK-MEL-28 > 100 µM | Malme-3M 46 µM | SW-620 74.5 µM | MCF7 13.6 µM | HCC 2998 > 100 µM | NCI-H460 37 µM | NCI/ADR-RES 34 µM | HOP-92 > 100 µM | CCRF-CEM 63.5 µM

Cn1c(CC(O)c2nc3ccccc3n2C)nc2ccccc21 (stereo not given)
inactive: NCI-H226 > 48.3 µM | RXF 393 > 24.7 µM | LOX IMVI > 28.8 µM | SF-268 > 16.2 µM | OVCAR-5 > 59.7 µM | SN12C > 36 µM | IGROV-1 > 17.4 µM | SK-OV-3 > 30.4 µM | T47D > 8.57 µM | NCI-H23 > 17.6 µM | 786-0 > 44.6 µM | SK-MEL-28 > 32.9 µM | Malme-3M > 21.1 µM | SW-620 > 16 µM | MCF7 > 15.9 µM | HCC 2998 > 100 µM | NCI-H460 > 27.4 µM | NCI/ADR-RES 29.9 µM | HOP-92 > 24.4 µM | CCRF-CEM 2.65 µM

Nc1nc(Cl)nc(NCc2ccccc2)n1
inactive: NCI-H226 > 100 µM | RXF 393 > 100 µM | LOX IMVI > 100 µM | SF-268 > 100 µM | OVCAR-5 > 100 µM | SN12C > 100 µM | IGROV-1 > 100 µM | SK-OV-3 > 100 µM | T47D > 100 µM | NCI-H23 > 100 µM | 786-0 > 100 µM | SK-MEL-28 > 100 µM | Malme-3M > 100 µM | SW-620 > 100 µM | MCF7 > 100 µM | HCC 2998 > 100 µM | NCI-H460 > 100 µM | NCI/ADR-RES > 100 µM | HOP-92 > 100 µM | CCRF-CEM > 100 µM

O=C1C=CC(=O)c2cc(Sc3ccccc3)c(=O)ccc21
inactive: NCI-H226 23.1 µM | RXF 393 12.3 µM | LOX IMVI 13.1 µM | SF-268 22 µM | OVCAR-5 19.6 µM | SN12C 16.2 µM | IGROV-1 18.5 µM | SK-OV-3 26 µM | T47D 3.41 µM | NCI-H23 19.2 µM | 786-0 14.8 µM | SK-MEL-28 18 µM | Malme-3M 12.7 µM | SW-620 3.83 µM | MCF7 5.83 µM | HCC 2998 16.3 µM | NCI-H460 22 µM | NCI/ADR-RES 22 µM | HOP-92 10.4 µM | CCRF-CEM 1.76 µM

CCOC(=O)/C=C(/C(=O)OCC)n1ccc(=O)n(/C(=C/C(=O)OCC)C(=O)OCC)c1=O
inactive: NCI-H226 8.07 µM | RXF 393 3.68 µM | LOX IMVI 5.19 µM | SF-268 18.6 µM | OVCAR-5 17.1 µM | SN12C 4.43 µM | IGROV-1 15.9 µM | SK-OV-3 23.6 µM | T47D 4.48 µM | NCI-H23 16 µM | 786-0 2.4 µM | SK-MEL-28 13.1 µM | Malme-3M 2.79 µM | SW-620 2.04 µM | MCF7 6.4 µM | HCC 2998 18.4 µM | NCI-H460 17.3 µM | NCI/ADR-RES 22.9 µM | HOP-92 2.07 µM | CCRF-CEM 1.37 µM

O=C(CN(c1ccc(S(=O)(=O)O)cc1)c1ccc(S(=O)(=O)O)cc1)Nn1cnc2ccc(S(=O)(=O)N(c3ccc(S(=O)(=O)O)cc3)c3ccc(S(=O)(=O)O)cc3)cc2c1=O
inactive: NCI-H226 > 100 µM | RXF 393 > 100 µM | LOX IMVI > 100 µM | SF-268 > 100 µM | OVCAR-5 > 100 µM | SN12C > 100 µM | IGROV-1 61.2 µM | SK-OV-3 > 100 µM | T47D > 100 µM | NCI-H23 > 100 µM | 786-0 > 100 µM | SK-MEL-28 > 100 µM | Malme-3M > 100 µM | SW-620 > 100 µM | MCF7 > 100 µM | HCC 2998 > 100 µM | NCI-H460 > 100 µM | NCI/ADR-RES > 100 µM | HOP-92 > 100 µM | CCRF-CEM > 100 µM

COC(=O)[C@H](CNC(=O)/C=C/c1ccc(OC(C)=O)c(OC(C)=O)c1)NC(=O)/C=C/c1ccc(OC(C)=O)c(OC(C)=O)c1
inactive: NCI-H226 > 100 µM | RXF 393 > 100 µM | LOX IMVI > 100 µM | SF-268 > 10 µM | OVCAR-5 > 100 µM | SN12C > 100 µM | IGROV-1 > 100 µM | SK-OV-3 > 100 µM | T47D 44.4 µM | NCI-H23 > 100 µM | 786-0 > 100 µM | SK-MEL-28 > 100 µM | Malme-3M 16.4 µM | SW-620 > 100 µM | MCF7 > 100 µM | HCC 2998 > 100 µM | NCI-H460 > 100 µM | NCI/ADR-RES > 100 µM | HOP-92 > 100 µM | CCRF-CEM 39.3 µM

Nc1nc(-[n+]2ccc(-c3ccncc3)cc2)nc(Cl)c1Cl
inactive: NCI-H226 > 100 µM | RXF 393 16.5 µM | LOX IMVI 15 µM | SF-268 18.4 µM | OVCAR-5 > 100 µM | SN12C 20.3 µM | IGROV-1 17.6 µM | SK-OV-3 > 100 µM | T47D 16.5 µM | NCI-H23 22.5 µM | 786-0 13.5 µM | SK-MEL-28 47 µM | Malme-3M 34.9 µM | SW-620 25.5 µM | MCF7 4.6 µM | HCC 2998 > 100 µM | NCI-H460 > 100 µM | NCI/ADR-RES > 100 µM | HOP-92 23.8 µM | CCRF-CEM 13.9 µM

COc1cc(Nc2nc3ccccc3nc2C(C)C)cc(OC)c1OC
inactive: NCI-H226 > 100 µM | RXF 393 > 100 µM | LOX IMVI > 100 µM | SF-268 > 100 µM | OVCAR-5 > 100 µM | SN12C > 100 µM | IGROV-1 > 100 µM | SK-OV-3 > 100 µM | T47D > 100 µM | NCI-H23 > 100 µM | 786-0 > 100 µM | SK-MEL-28 > 100 µM | Malme-3M > 100 µM | SW-620 > 100 µM | MCF7 > 100 µM | HCC 2998 > 100 µM | NCI-H460 > 100 µM | NCI/ADR-RES 68.4 µM | HOP-92 34 µM | CCRF-CEM > 100 µM

c1ccc(C2=NN=C3C(c4ccccc4)=Nc4ccccc4N3C2)cc1
inactive: NCI-H226 14.9 µM | RXF 393 10.1 µM | LOX IMVI 10 µM | SF-268 9.48 µM | OVCAR-5 32.2 µM | SN12C 29.9 µM | IGROV-1 26.5 µM | SK-OV-3 53.1 µM | T47D 36.7 µM | NCI-H23 47.3 µM | 786-0 11.9 µM | SK-MEL-28 34.7 µM | Malme-3M 26 µM | SW-620 10.5 µM | MCF7 20 µM | HCC 2998 22.4 µM | NCI-H460 5.07 µM | NCI/ADR-RES 14.7 µM | HOP-92 29.3 µM | CCRF-CEM 1.69 µM
